Source: patent US9028845B2, “Chimeric immunomodulatory compounds and methods of using the same-IV” (Dynavax Technologies Corporation, priority 2001, dated 2015)

Key:
mouse splenocytes = assay: Mouse splenocyte cytokine secretion (IL-6, IL-12, IFN by ELISA); type: cell-based, BALB/c mice; design: IFN: unit not given beside the values; conditions: 24 h
Method: Polynucleotides and chimeric compounds were tested for immunostimulatory activity on mouse splenocytes. Immunostimulation was assessed by measurement of cytokine secretion into the culture media. Cytokine levels in the culture supernatant were determined by enzyme-linked immunosorbent assay (ELISA) tests.
Cells were isolated and prepared using standard techniques. Spleens of 8 to 20 week-old BALB/c mice were harvested and the splenocytes isolated using standard teasing and treatment with ACK lysing buffer from BioWhittaker, Inc. Four spleens were pooled in this experiment. Isolated cells were washed in RPMI 1640 media supplemented with 2% heat-inactivated fetal calf serum (FCS), 50 μM 2-mercaptoethanol, 1% penicillin-streptomycin, and 2 mM L-glutamine and resuspended at approximately […] in 10% FCS/RPMI (RPMI 1640 media with 10% heat-inactivated FCS, 50 μM 2-mercaptoethanol, 1% penicillin-streptomycin, and 2 mM L-glutamine).
Cell cultures were set up in triplicate with approximately 7×10^5 cells/well in a 96-well flat microtiter plate in 100 μl 10% FCS/RPMI with the cells allowed to rest for at lest 1 hour after plating. The indicated test compounds were incubated (at the indicated concentrations) for 24 hours at 37° C. Cell supernatants were harvested and frozen at −80° C. Cytokine production by the cells was determined by ELISAs, as shown in 19.

CD19+ B cells = assay: Human B cell proliferation assay (3H-thymidine incorporation); conditions: B cells, 2 μg/ml, Experiment B
human PBMCs = assay: Human PBMC cytokine response assay (IFN-γ and IFN-α in cell-free medium by ELISA), with or without cPLGA; type: cell-based;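 for IFN-α (pg/ml) mean: 20 µg/mL compound for 24 hours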;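 for IFN-γ (pg/ml) mean: 20 µg/mL compound for 24 hours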
[1] = Donor 5, 20 μg/ml (mixtures: 20 μg/ml total), 24 h
[2] = Donor 6, 20 μg/ml (mixtures: 20 μg/ml total), 24 h
[3] = mean of Donors 1-2, 20 μg/ml, 24 h
[4] = mean of Donors 5-6, 20 μg/ml (mixtures: 20 μg/ml total), 24 h
[5] = mean of Donors 7-8, 20 μg/ml, 24 h

“5′-TCGTCG-3′- C3-5′-ACGTTCG-3′-C3-5′-AGATGAT-3′ [Compound C-11]” showed an IFN (mouse splenocytes; dose 0.1 μg/ml) of 960, an IL-6 (mouse splenocytes; dose 0.1 μg/ml) of 458 and an IL-12 (mouse splenocytes; dose 0.1 μg/ml) of 3359. The IFN (mouse splenocytes; dose 1.0 μg/ml) was 3220, the IL-6 (mouse splenocytes; dose 1.0 μg/ml) was 11814 and the IL-12 (mouse splenocytes; dose 1.0 μg/ml) was 4914. The IFN (mouse splenocytes; dose 5.0 μg/ml) was 3342, the IL-6 (mouse splenocytes; dose 5.0 μg/ml) was 10098 and the IL-12 (mouse splenocytes; dose 5.0 μg/ml) was 4279. The cpm1 (CD19+ B cells; donor 121) was 30367 cpm, the cpm2 (CD19+ B cells; donor 121) was 30412 cpm and the cpm3 (CD19+ B cells; donor 121) was 18528 cpm. It also gave a mean cpm (CD19+ B cells; donor 121 mean) of 26436 cpm, a cpm1 (CD19+ B cells; donor 194) of 16967 cpm and a cpm2 (CD19+ B cells; donor 194) of 20898 cpm. It also gave a cpm3 (CD19+ B cells; donor 194) of 11253 cpm, a mean cpm (CD19+ B cells; donor 194 mean) of 16373 cpm and a mean of both (CD19+ B cells; mean of donors 121 and 194) of 21404 cpm. For the same substance, the “IFN-α (pg/ml) Donor 1” value (human PBMCs; Donor 1, 20 μg/ml, 24 h) was 119 pg/mL, the “IFN-γ (pg/ml) Donor 1” value (human PBMCs; Donor 1, 20 μg/ml, 24 h) was 2308 pg/mL and the “IFN-α (pg/ml) Donor 2” value (human PBMCs; Donor 2, 20 μg/ml, 24 h) was 0 pg/mL. For the same substance, the “IFN-γ (pg/ml) Donor 2” value (human PBMCs; Donor 2, 20 μg/ml, 24 h) was 270 pg/mL, the “IFN-α (pg/ml) Donor 5” value (human PBMCs; [1]) was 76 pg/mL and the “IFN-γ (pg/ml) Donor 5” value (human PBMCs; [1]) was 25 pg/mL. For the same substance, the “IFN-α (pg/ml) Donor 6” value (human PBMCs; [2]) was 175 pg/mL, the “IFN-γ (pg/ml) Donor 6” value (human PBMCs; [2]) was 792 pg/mL and the “IFN-α (pg/ml) Donor 7” value (human PBMCs; Donor 7, 20 μg/ml, 24 h) was 6 pg/mL. The “IFN-γ (pg/ml) Donor 7” value (human PBMCs; Donor 7, 20 μg/ml, 24 h) was 5 pg/mL, the “IFN-α (pg/ml) Donor 8” value (human PBMCs; Donor 8, 20 μg/ml, 24 h) was 56 pg/mL and the “IFN-γ (pg/ml) Donor 8” value (human PBMCs; Donor 8, 20 μg/ml, 24 h) was 419 pg/mL. For the same substance, the “IFN-α (pg/ml) mean” value (human PBMCs; [3]) was 59 pg/mL, the “IFN-γ (pg/ml) mean” value (human PBMCs; [3]) was 1289 pg/mL and the “IFN-α (pg/ml) mean” value (human PBMCs; [4]) was 126 pg/mL. The “IFN-γ (pg/ml) mean” value (human PBMCs; [4]) was 409 pg/mL, the “IFN-α (pg/ml) mean” value (human PBMCs; [5]) was 31 pg/mL and the “IFN-γ (pg/ml) mean” value (human PBMCs; [5]) was 212 pg/mL. The “immunomodulatory activity (IFN-γ / IFN-α secretion), in words” value (human PBMCs; used alone (no cPLGA)) was “did have immunomodulatory activity”.
